# Measurements published in PubChem BioAssay (NCI).
#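 96-well plates; 48 h exposure; 5 concentrations. Endpoints by linear interpolation between flanking doses. Not reached: highest tested concentration assigned. Here, GI50 denotes the concentration required for 50% inhibition of growth. At the TGI there is no net growth.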
# Experiments:
# Experiment in all cases: inhibition of tumour cell growth, NCI panel, 48 h
# [1] = test system: 786-0 renal
# [2] = test system: A498 renal
# [3] = test system: A549 NSCLC
# [4] = test system: ACHN renal
# [5] = test system: BT-549 breast
# [6] = test system: CAKI-1 renal
# [7] = test system: CCRF-CEM leukemia
# [8] = test system: COLO 205 colon
# [9] = test system: DU-145 prostate
# [10] = test system: EKVX NSCLC
# [11] = test system: HCC-2998 colon
# [12] = test system: HCT-116 colon
# [13] = test system: HCT-15 colon
# [14] = test system: HL-60(TB) leukemia
# [15] = test system: HOP-62 NSCLC
# [16] = test system: HOP-92 NSCLC
# [17] = test system: HS 578T breast
# [18] = test system: HT29 colon
# [19] = test system: IGROV1 ovarian
# [20] = test system: K-562 leukemia
# [21] = test system: KM12 colon
# [22] = test system: M14 melanoma
# [23] = test system: MALME-3M melanoma
# [24] = test system: MCF7 breast
# [25] = test system: MDA-MB-231 breast
# [26] = test system: MDA-MB-435
# [27] = test system: MOLT-4 leukemia
# [28] = test system: NCI-H226 lung
# [29] = test system: NCI-H23 lung
# [30] = test system: NCI-H460 lung
# [31] = test system: NCI-H522 lung
# [32] = test system: NCI/ADR-RES ovarian
# [33] = test system: OVCAR-4 ovarian
# [34] = test system: OVCAR-5 ovarian
# [35] = test system: OVCAR-8 ovarian
# [36] = test system: PC-3 prostate
# [37] = test system: RPMI-8226 leukemia
# [38] = test system: RXF 393 renal
# [39] = test system: SF-268 CNS
# [40] = test system: SF-295 CNS
# [41] = test system: SF-539 CNS
# [42] = test system: SK-MEL-2 melanoma
# [43] = test system: SK-MEL-28 melanoma
# [44] = test system: SK-MEL-5 melanoma
# [45] = test system: SK-OV-3 ovarian
# [46] = test system: SN12C renal
# [47] = test system: SNB-19 CNS
# [48] = test system: SNB-75 CNS
# [49] = test system: SW-620 colon
# [50] = test system: T-47D breast
# [51] = test system: TK-10 renal
# [52] = test system: U251 CNS
# [53] = test system: UACC-257 melanoma
# [54] = test system: UACC-62 melanoma
# [55] = test system: UO-31 renal
structure (smiles),measurement,setting,value
C#Cc1nc(C(=O)NCCC(=O)Nc2ccc(NC(=O)c3ccc(/C=C/C(=O)c4nccn4C)cc3)cc2)cs1,GI50,[1],939 nM
same,TGI,[1],1760 nM
same,GI50,[2],7390 nM
same,TGI,[2],19200 nM
same,GI50,[3],2230 nM
same,TGI,[3],> 50000 nM
same,GI50,[4],899 nM
same,TGI,[4],1660 nM
same,GI50,[5],1760 nM
same,TGI,[5],11300 nM
same,GI50,[6],2410 nM
same,TGI,[6],20100 nM
same,GI50,[7],954 nM
same,TGI,[7],2320 nM
same,GI50,[8],4950 nM
same,TGI,[8],47000 nM
same,GI50,[9],2320 nM
same,TGI,[9],> 50000 nM
same,GI50,[10],2790 nM
same,TGI,[10],> 50000 nM
same,GI50,[11],2140 nM
same,TGI,[11],7950 nM
same,GI50,[12],1000 nM
same,TGI,[12],2100 nM
same,GI50,[13],850 nM
same,TGI,[13],1980 nM
same,GI50,[14],857 nM
same,TGI,[14],2530 nM
same,GI50,[15],1150 nM
same,TGI,[15],2830 nM
same,GI50,[16],1070 nM
same,TGI,[16],2780 nM
same,GI50,[17],4550 nM
same,TGI,[17],> 50000 nM
same,GI50,[18],1130 nM
same,TGI,[18],2540 nM
same,GI50,[19],878 nM
same,TGI,[19],1800 nM
same,GI50,[20],1200 nM
same,TGI,[20],> 50000 nM
same,GI50,[21],2880 nM
same,TGI,[21],32500 nM
same,GI50,[22],3430 nM
same,TGI,[22],20800 nM
same,GI50,[23],1400 nM
same,TGI,[23],4640 nM
same,GI50,[24],1260 nM
same,TGI,[24],4980 nM
same,GI50,[25],1130 nM
same,TGI,[25],2600 nM
same,GI50,[26],1710 nM
same,TGI,[26],6790 nM
same,GI50,[27],1290 nM
same,TGI,[27],3530 nM
same,GI50,[28],1350 nM
same,TGI,[28],4020 nM
same,GI50,[29],1220 nM
same,TGI,[29],3410 nM
same,GI50,[30],1570 nM
same,TGI,[30],4600 nM
same,GI50,[31],1040 nM
same,TGI,[31],2270 nM
same,GI50,[32],3270 nM
same,TGI,[32],> 50000 nM
same,GI50,[33],24900 nM
same,TGI,[33],> 50000 nM
same,GI50,[34],1580 nM
same,TGI,[34],4940 nM
same,GI50,[35],1750 nM
same,TGI,[35],> 50000 nM
same,GI50,[36],1380 nM
same,TGI,[36],3880 nM
same,GI50,[37],934 nM
same,TGI,[37],2200 nM
same,GI50,[38],1040 nM
same,TGI,[38],2750 nM
same,GI50,[39],1720 nM
same,TGI,[39],13300 nM
same,GI50,[40],2370 nM
same,TGI,[40],8430 nM
same,GI50,[41],911 nM
same,TGI,[41],1670 nM
same,GI50,[42],35800 nM
same,TGI,[42],> 50000 nM
same,GI50,[43],7000 nM
same,TGI,[43],29900 nM
same,GI50,[44],3130 nM
same,TGI,[44],11100 nM
same,GI50,[45],11500 nM
same,TGI,[45],> 50000 nM
same,GI50,[46],1300 nM
same,TGI,[46],4490 nM
same,GI50,[47],1830 nM
same,TGI,[47],7400 nM
same,GI50,[48],1430 nM
same,TGI,[48],9710 nM
same,GI50,[49],1230 nM
same,TGI,[49],2830 nM
same,GI50,[50],2220 nM
same,TGI,[50],> 50000 nM
same,GI50,[51],8940 nM
same,TGI,[51],> 50000 nM
same,GI50,[52],886 nM
same,TGI,[52],2040 nM
same,GI50,[53],18700 nM
same,TGI,[53],> 50000 nM
same,GI50,[54],3010 nM
same,TGI,[54],10900 nM
same,GI50,[55],763 nM
same,TGI,[55],1490 nM
